Paper PMC10011573, “Development of novel broad-spectrum antimicrobial lipopeptides derived from plantaricin NC8 β” (Scientific Reports, 2023)
Non-standard residues stand in square brackets, D forms with d. Residues, ends and D or L forms follow the SMILES beside them. *: point of attachment. Heptanoyl = CCCCCCC(=O)*; Hexanoyl = CCCCCC(=O)*

Legend:
[1] = Carboxyfluorescein release assay, bacterial liposome model; type: biochemical; conditions: 75:25 POPC:POPG liposomes, 25 µM lipid, 10 mM PBS pH 7.4, 10^–5–10^2 µM peptide, 60 min, fluorescence, Hill fit, n = 3; read-out: EC50 Bacterial (concentration that triggers 50% CF release)
Method: (§1) Liposomes were prepared by thin-film hydration method. Lipids stock solutions (10 mg/ml in chloroform, Avanti Polar Lipids, Inc., Alabaster, United States) of the lipids 1-palmitoyl-2-oleoyl-sn-glycero-3-phosphocholine (POPC), 1-palmitoyl-2-oleoyl-sn-glycero-3-phospho-L-serine (POPS), 1-Hexadecanoyl-2-(9Z-Octadecenoyl)-sn-Glycero-3-Phosphoglycerol (POPG) and Cholesterol (Chol) were employed. Bacterial liposomes were prepared with a 75:25 ratio of POPC:POPG and mammalian liposomes were prepared with a 65:5:30 ratio of POPC:POPS:Chol. Lipid solutions were thoroughly homogenised, and the solvent was evaporated with the use of a dry N2 steam to yield a lipid cake. […] The lipid film was subsequently hydrated with a 5(6)-CF solution (50 mM CF, 10 mM PBS, 90 mM NaCl, pH 7.4). Following a 10 min incubation on orbital shaker (50 min^−1), the solution was vortexed for 60 s on medium speed. A mini extruder (Avanti Polar Lipids, Inc., United States) was employed and 21 extrusions were performed through a 0.1 µm filter membrane (Nuclepore track-etched hydrophilic membrane, Cytiva, Whatman, MA, United States), resulting in monodispersed unilamellar liposomes. Directly before use the liposomes were purified from unencapsulated CF by filtration through a gel filtration column (PD Minitrap G-25 column, Cytiva, United States), against PBS buffer (10 mM, pH 7.4).
(§2) Peptide and lipopeptide activity towards liposome models were evaluated using a carboxyfluorescein (CF) release assay. Liposomes were diluted in PBS (10 mM, pH 7.4) to a final lipid concentration of 25 µM and incubated with peptides (10^–5–10^2 µM) in a 96-well plate (n = 3). CF release was monitored using an Infinite M1000 PRO plate reader every 2.5 min for 1 h. Full (100%) CF release was obtained by addition of 1% Triton X-100 solution followed by 10 min incubation. CF release percentage was evaluated according to the formula 100 * (F − F0)/(FT − F0), where F indicates the instantaneous fluorescence, FT the total fluorescence and F0 the background fluorescence prior to peptide addition. Data were fitted to a Hill-1 curve using MATLAB R2019a (The MathWorks Inc., Natick, Massachusetts, United States) and the half maximum effective concentration (EC50) was extracted.

[2] = Carboxyfluorescein release assay, mammalian liposome model; type: biochemical; conditions: 65:5:30 POPC:POPS:Chol. liposomes, 25 µM lipid, 10 mM PBS pH 7.4, 10^–5–10^2 µM peptide, 60 min, fluorescence, Hill fit, n = 3; read-out: EC50 Mammalial (concentration that triggers 50% CF release)
Method: as §1, §2

[3] = tested on: human erythrocytes; experiment: Hemolytic activity; type: cell-based; conditions: 15% suspension in PBS, 1 h, 37 °C, absorbance 540 nm, highest tested concentration 100 µM
Method: The hemolytic activity of the lipopeptides was investigated by collecting blood from healthy volunteers in heparinized vacutainers. Briefly, the blood was centrifuged at 600 × g for 5 min and the erythrocyte pellet was washed three times in PBS. The cells were then suspended in PBS and added to 96-well plates (15% erythrocyte suspension/well), containing the lipopeptides with two-fold serial dilution. The plates were incubated for 1 h at 37 °C followed by centrifugation for 5 min at 900×g and absorbance measurement of the supernatants at 540 nm. Hemolytic activity (%) was calculated by subtracting the negative control from all values and normalization against the positive control (0.5% Triton X-100), that was set to 100%. All experiments, each in duplicate, were repeated three times.

[4] = tested on: E. coli (K-12 MG1655); conditions: Table 3; K-12 MG1655; broth microdilution, 50:50 PBS/LB-broth, 200 µL, 20 h, 37 °C
Method: (§3) S. aureus (ATCC 29213, MSSA, ATCC, Manassas, VA), E. coli (K-12 MG1655) and clinical isolates of S. aureus, E. coli, E. faecium, K. pneumoniae, A. baumannii, P. aeruginosa and E. cloacae obtained from the Department of Laboratory Medicine at Örebro University Hospital were streaked on Luria–Bertani (LB) agar plates and incubated at 37 °C overnight. Single colonies were inoculated into 5 ml of LB broth and incubated on a shaker (400 rpm) at 37 °C overnight. The bacterial concentrations were determined by viable count and were adjusted to correlate with approximately 10^9 CFU/ml.
(§4) The broth microdilution method was used to determine minimal inhibitory concentration (MIC) and minimal bactericidal concentration (MBC), in accordance with the EUCAST standards for the broth microdilution method. Two-fold serial dilutions of the lipopeptides were used, and the final concentrations ranged from 0.19 to 100 µM. In brief, two-fold serial dilutions of the lipopeptides were performed in a 96-well plate in PBS, with a final volume of 100 µl per well, after which 100 µl of LB-broth media containing approximately 5 × 10^5 CFU/ml of bacteria was added to each well. The plate was then incubated for 20 h in 37 °C on a shaker (400 rpm). The effect of lipopeptide-antibiotic combinations was investigated by performing checkerboard assays. The assays were performed in accordance with the MIC and MBC tests conducted above, but with horizontal and longitudinal two-fold serial dilutions of the tested compounds. […] The fractional inhibitory concentration (FIC) and fractional bactericidal concentration (FBC) were calculated by the equation (MIC or MBC of peptide in combination/MIC or MBC of peptide alone) + (MIC or MBC of antibiotic in combination/MIC or MBC of antibiotic alone). Synergy was defined as FIC/FBC ≤ 0.5, additive when 0.5 < FIC/FBC ≤ 1, indifferent when 1 < FIC/FBC < 2 and antagonistic when FIC/FBC ≥ 2. All experiments were repeated at least three times.

[5] = tested on: S. aureus (ATCC 29213, MSSA); conditions: ATCC 29213, 20 h
Method: as §3, §4

[6] = tested on: S. aureus (ATCC 29213); type: cell-based; conditions: Table 6; ATCC 29213; checkerboard assay, 50:50 PBS/LB-broth, 200 µL
Method: as §4, with “Two-fold serial dilutions of the lipopeptides were used, and the final concentrations ranged from 0.19 to 100 µM.” left out, “Synergy was defined as FIC/FBC ≤ 0.5, additive when 0.5 < FIC/FBC ≤ 1, indifferent when 1 < FIC/FBC < 2 and antagonistic when FIC/FBC ≥ 2.” left out

| Compound | EC50 [1] [nM] | EC50 [2] [nM] | E. coli MIC [4] [µM] | S. aureus MIC [5] [µM] | HC, hemolytic concentration at 5% hemolytic activity [3] [µM] | E. coli MBC [4] [µM] | S. aureus MBC [5] [µM] | S. aureus MBC, antibiotic alone [6] [µg/mL] | S. aureus MIC, antibiotic alone [6] [µg/mL] |
| --- | --- | --- | --- | --- | --- | --- | --- | --- | --- |
| CCCCCCC(=O)N[C@H](CC(C)C)C(=O)NCC(=O)N[C@H](CC(C)C)C(=O)N[C@H](CCCCN)C(=O)N[C@H](CC(C)C)C(=O)N[C@H](CC(C)C)C(=O)N[C@H](Cc1c[nH]c2ccccc12)C(=O)N[C@H](CO)C(=O)N[C@H](C)C(=O)N[C@H](Cc1ccc(O)cc1)C(=O)N[C@H](CCCCN)C(=O)N[C@H](Cc1c[nH]cn1)C(=O)N[C@H](CCCNC(=N)N)C(=O)N[C@H](CCCCN)C(=O)N[C@@H](C(=O)N[C@H](CC(C)C)C(N)=O)[C@H](C)O [D-6-C7-Leu] (Heptanoyl-[dL]G[dL][dK][dL][dL][dW][dS][dA][dY][dK][dH][dR][dK][dT][dL]-NH2) | 130 | 1020 | 3.1 | 1.5 | 35 | 3.1 | 1.5 |  |  |
| CCCCCCC(=O)N[C@H](CC(C)C)C(=O)NCC(=O)N[C@@H](C(=O)N[C@H](CCCCN)C(=O)N[C@@H](C(=O)N[C@H](CC(C)C)C(=O)N[C@H](Cc1c[nH]c2ccccc12)C(=O)N[C@H](CO)C(=O)N[C@H](C)C(=O)N[C@H](Cc1ccc(O)cc1)C(=O)N[C@H](CCCCN)C(=O)N[C@H](Cc1c[nH]cn1)C(=O)N[C@H](CCCNC(=N)N)C(=O)N[C@H](CCCCN)C(=O)N[C@@H](C(=O)N[C@@H](C(N)=O)[C@H](C)CC)[C@H](C)O)[C@H](C)CC)[C@H](C)CC [D-6-C7] (Heptanoyl-[dL]G[dI][dK][dI][dL][dW][dS][dA][dY][dK][dH][dR][dK][dT][dI]-NH2) | 290 | 1470 | 3.1 | 1.5 | 65 | 6.2 | 3.1 |  |  |
| CCCCCC(=O)N[C@@H](CC(C)C)C(=O)NCC(=O)N[C@H](C(=O)N[C@@H](CCCCN)C(=O)N[C@H](C(=O)N[C@@H](CC(C)C)C(=O)N[C@@H](Cc1c[nH]c2ccccc12)C(=O)N[C@@H](CO)C(=O)N[C@@H](C)C(=O)N[C@@H](Cc1ccc(O)cc1)C(=O)N[C@@H](CCCCN)C(=O)N[C@@H](Cc1c[nH]cn1)C(=O)N[C@@H](CCCNC(=N)N)C(=O)N[C@@H](CCCCN)C(=O)N[C@H](C(=O)N[C@H](C(N)=O)[C@@H](C)CC)[C@@H](C)O)[C@@H](C)CC)[C@@H](C)CC [L-6-C6] (Hexanoyl-LGIKILWSAYKHRKTI-NH2) | 160 | 3570 | 6.2 | 3.1 | > 100 | 6.2 | 6.2 |  |  |
| CCCCCCC(=O)N[C@@H](CC(C)C)C(=O)NCC(=O)N[C@@H](CC(C)C)C(=O)N[C@@H](CCCCN)C(=O)N[C@@H](CC(C)C)C(=O)N[C@@H](CC(C)C)C(=O)N[C@@H](Cc1c[nH]c2ccccc12)C(=O)N[C@@H](CO)C(=O)N[C@@H](C)C(=O)N[C@@H](Cc1ccc(O)cc1)C(=O)N[C@@H](CCCCN)C(=O)N[C@@H](Cc1c[nH]cn1)C(=O)N[C@@H](CCCNC(=N)N)C(=O)N[C@@H](CCCCN)C(=O)N[C@H](C(=O)N[C@@H](CC(C)C)C(N)=O)[C@@H](C)O [L-6-C7-Leu] (Heptanoyl-LGLKLLWSAYKHRKTL-NH2) | 120 | 1100 | 6.2 | 1.5 | 30 | 6.2 | 1.5 |  |  |
| CN(C)[C@@H]1C(O)=C(C(N)=O)C(=O)[C@@]2(O)C(O)=C3C(=O)c4c(O)cccc4[C@@](C)(O)[C@H]3C[C@@H]12 [Tetracycline] |  |  |  |  |  |  |  | 8 | 0.5 |

Second part, led by results:

| EC50 [1] [nM] | EC50 [2] [nM] | E. coli MIC [4] [µM] | S. aureus MIC [5] [µM] | Compound | HC, hemolytic concentration at 5% hemolytic activity [3] [µM] | E. coli MBC [4] [µM] | S. aureus MBC [5] [µM] | S. aureus MBC, antibiotic alone [6] [µg/mL] | S. aureus MIC, antibiotic alone [6] [µg/mL] |
| --- | --- | --- | --- | --- | --- | --- | --- | --- | --- |
| 130 | 1220 | 3.1 | 1.5 | CCCCCC(=O)N[C@H](CC(C)C)C(=O)NCC(=O)N[C@H](CC(C)C)C(=O)N[C@H](CCCCN)C(=O)N[C@H](CC(C)C)C(=O)N[C@H](CC(C)C)C(=O)N[C@H](Cc1c[nH]c2ccccc12)C(=O)N[C@H](CO)C(=O)N[C@H](C)C(=O)N[C@H](Cc1ccc(O)cc1)C(=O)N[C@H](CCCCN)C(=O)N[C@H](Cc1c[nH]cn1)C(=O)N[C@H](CCCNC(=N)N)C(=O)N[C@H](CCCCN)C(=O)N[C@@H](C(=O)N[C@H](CC(C)C)C(N)=O)[C@H](C)O [D-6-C6-Leu] (Hexanoyl-[dL]G[dL][dK][dL][dL][dW][dS][dA][dY][dK][dH][dR][dK][dT][dL]-NH2) | 65 | 3.1 | 1.5 |  |  |
| 130 | 1210 | 6.2 | 1.5 | CCCCCC(=O)N[C@@H](CC(C)C)C(=O)NCC(=O)N[C@@H](CC(C)C)C(=O)N[C@@H](CCCCN)C(=O)N[C@@H](CC(C)C)C(=O)N[C@@H](CC(C)C)C(=O)N[C@@H](Cc1c[nH]c2ccccc12)C(=O)N[C@@H](CO)C(=O)N[C@@H](C)C(=O)N[C@@H](Cc1ccc(O)cc1)C(=O)N[C@@H](CCCCN)C(=O)N[C@@H](Cc1c[nH]cn1)C(=O)N[C@@H](CCCNC(=N)N)C(=O)N[C@@H](CCCCN)C(=O)N[C@H](C(=O)N[C@@H](CC(C)C)C(N)=O)[C@@H](C)O [L-6-C6-Leu] (Hexanoyl-LGLKLLWSAYKHRKTL-NH2) | 60 | 6.2 | 3.1 |  |  |
